Experiment [1] addresses T1, Am-CaV3 (Apis mellifera, UniProt A0ACM8RFK5).
T1 construct: gene LOC551883; full channel alpha1 subunit cloned from honeybee, mRNA injected in Xenopus oocytes, without CaVbeta; N-terminal region peptide CFDVPSSDGPSDPS (antibody antigen)
The experiment in a line: two-electrode voltage clamp in Xenopus oocytes, Ba2+ current block. Type of experiment: cell-based. (In general: Two-electrode voltage clamp is typically applied to oocytes expressing channels or transporters.)

Experiment [2] addresses T1, Am-CaV3. The experiment is described as above. Type of experiment: cell-based. Conditions: inhibition (blocker), 10 mM Ba2+, reversible, code printed NNC55-0398 in text, NNC 55-0396 in Figure 1 legend.

The structures appear in SMILES notation.

T1 sequence (A0ACM8RFK5 1-2566): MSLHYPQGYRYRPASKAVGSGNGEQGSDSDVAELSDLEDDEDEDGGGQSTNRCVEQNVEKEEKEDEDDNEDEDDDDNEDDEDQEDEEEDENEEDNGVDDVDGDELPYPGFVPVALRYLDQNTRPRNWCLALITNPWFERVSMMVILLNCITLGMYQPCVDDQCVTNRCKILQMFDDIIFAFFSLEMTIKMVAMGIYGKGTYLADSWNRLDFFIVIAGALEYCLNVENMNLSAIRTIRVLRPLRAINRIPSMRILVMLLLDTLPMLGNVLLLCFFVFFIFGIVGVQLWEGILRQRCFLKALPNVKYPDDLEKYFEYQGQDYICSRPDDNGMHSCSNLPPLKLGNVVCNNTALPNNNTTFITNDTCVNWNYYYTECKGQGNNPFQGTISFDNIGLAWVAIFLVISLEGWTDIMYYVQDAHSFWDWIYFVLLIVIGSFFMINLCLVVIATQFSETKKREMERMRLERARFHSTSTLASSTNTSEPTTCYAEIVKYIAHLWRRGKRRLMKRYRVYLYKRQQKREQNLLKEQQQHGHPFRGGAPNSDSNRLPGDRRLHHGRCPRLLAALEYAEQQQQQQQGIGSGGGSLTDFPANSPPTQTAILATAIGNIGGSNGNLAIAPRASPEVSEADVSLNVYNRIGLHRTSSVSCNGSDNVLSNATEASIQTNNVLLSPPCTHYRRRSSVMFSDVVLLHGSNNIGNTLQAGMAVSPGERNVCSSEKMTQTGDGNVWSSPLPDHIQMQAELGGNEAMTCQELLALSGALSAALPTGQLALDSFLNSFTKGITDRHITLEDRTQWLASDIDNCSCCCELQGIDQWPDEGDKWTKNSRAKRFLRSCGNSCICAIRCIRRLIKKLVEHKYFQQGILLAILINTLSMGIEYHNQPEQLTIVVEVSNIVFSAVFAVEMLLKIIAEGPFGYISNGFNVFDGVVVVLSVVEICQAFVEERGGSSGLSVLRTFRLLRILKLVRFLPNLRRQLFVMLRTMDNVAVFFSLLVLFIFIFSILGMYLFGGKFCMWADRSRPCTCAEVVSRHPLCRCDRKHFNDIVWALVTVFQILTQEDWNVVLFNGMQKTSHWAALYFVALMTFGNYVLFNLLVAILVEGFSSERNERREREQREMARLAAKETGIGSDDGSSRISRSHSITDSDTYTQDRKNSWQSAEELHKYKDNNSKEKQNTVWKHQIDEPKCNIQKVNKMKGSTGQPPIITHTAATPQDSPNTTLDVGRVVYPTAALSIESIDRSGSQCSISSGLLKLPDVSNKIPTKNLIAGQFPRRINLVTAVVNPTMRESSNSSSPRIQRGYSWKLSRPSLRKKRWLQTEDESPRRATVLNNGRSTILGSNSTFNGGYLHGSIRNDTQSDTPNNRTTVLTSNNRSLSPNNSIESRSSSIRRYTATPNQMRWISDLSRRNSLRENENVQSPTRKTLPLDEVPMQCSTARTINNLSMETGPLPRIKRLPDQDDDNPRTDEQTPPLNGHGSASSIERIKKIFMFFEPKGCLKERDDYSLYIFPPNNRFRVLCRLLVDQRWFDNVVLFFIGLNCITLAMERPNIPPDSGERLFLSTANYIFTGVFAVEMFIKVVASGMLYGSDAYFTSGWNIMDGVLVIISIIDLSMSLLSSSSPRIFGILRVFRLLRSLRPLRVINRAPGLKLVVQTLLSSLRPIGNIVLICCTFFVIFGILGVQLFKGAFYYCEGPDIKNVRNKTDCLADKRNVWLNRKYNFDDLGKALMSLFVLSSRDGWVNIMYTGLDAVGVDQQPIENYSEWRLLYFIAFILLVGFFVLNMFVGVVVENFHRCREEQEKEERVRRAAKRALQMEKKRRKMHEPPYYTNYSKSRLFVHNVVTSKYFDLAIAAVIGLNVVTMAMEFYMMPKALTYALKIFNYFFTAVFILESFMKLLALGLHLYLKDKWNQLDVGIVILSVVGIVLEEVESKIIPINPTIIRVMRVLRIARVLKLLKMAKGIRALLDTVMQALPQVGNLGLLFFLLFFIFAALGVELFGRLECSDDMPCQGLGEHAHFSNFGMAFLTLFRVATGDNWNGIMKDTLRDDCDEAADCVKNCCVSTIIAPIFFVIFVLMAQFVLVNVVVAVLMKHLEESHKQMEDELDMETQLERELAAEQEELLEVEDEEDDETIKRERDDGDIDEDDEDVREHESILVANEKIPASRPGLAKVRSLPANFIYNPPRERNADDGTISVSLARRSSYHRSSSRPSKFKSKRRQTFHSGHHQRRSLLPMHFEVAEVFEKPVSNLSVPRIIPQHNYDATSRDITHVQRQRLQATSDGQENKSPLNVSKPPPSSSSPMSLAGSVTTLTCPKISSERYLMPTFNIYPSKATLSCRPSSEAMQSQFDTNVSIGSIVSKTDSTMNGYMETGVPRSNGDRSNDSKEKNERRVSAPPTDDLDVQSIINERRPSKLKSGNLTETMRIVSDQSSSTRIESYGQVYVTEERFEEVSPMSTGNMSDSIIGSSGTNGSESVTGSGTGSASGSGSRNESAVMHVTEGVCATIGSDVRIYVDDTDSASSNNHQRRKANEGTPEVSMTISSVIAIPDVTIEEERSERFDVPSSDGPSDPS

As usually defined, the EC50 is the concentration that produces a half-maximal response. Lower therefore signals a more potent agent. `COCC(=O)O[C@]1(CCN(C)CCCc2nc3ccccc3[nH]2)CCc2cc(F)ccc2[C@@H]1C(C)C` [Mi, mibefradil] came in with a concentration giving a half-maximal response (EC50) on Am-CaV3 [1] of 3.5 µM.

`CC(C)[C@H]1c2ccc(F)cc2CC[C@@]1(CCN(C)CCCc1nc2ccccc2[nH]1)OC(=O)C1CC1` [NN, NNC 55-0396]: the “residual current at 10 μM” value on Am-CaV3 [2] is reported as “The mibefradil analogue NNC55-0398 (NN) also had a similar potency”.

Values taken from article PMC5286435, “Honeybee locomotion is impaired by Am-CaV3 low voltage-activated Ca^2+ channel antagonist” (Scientific Reports, 2017).
